One series concerns kinases. As to the kind of experiment: KinMap kinase inhibition profile (FIG. 1). Conditions: compared to a kinase inhibitor that is not compound 1.
Series [1] can be described thus: Neutropenia in preclinical models (FIG. 2). Conditions: in comparison to Comparator 1. In kind it is in vivo.
The next series has as its target T1, ARK 5/NUAK 1 (Homo sapiens, UniProt O60285).
T1 sequence (O60285 1-661): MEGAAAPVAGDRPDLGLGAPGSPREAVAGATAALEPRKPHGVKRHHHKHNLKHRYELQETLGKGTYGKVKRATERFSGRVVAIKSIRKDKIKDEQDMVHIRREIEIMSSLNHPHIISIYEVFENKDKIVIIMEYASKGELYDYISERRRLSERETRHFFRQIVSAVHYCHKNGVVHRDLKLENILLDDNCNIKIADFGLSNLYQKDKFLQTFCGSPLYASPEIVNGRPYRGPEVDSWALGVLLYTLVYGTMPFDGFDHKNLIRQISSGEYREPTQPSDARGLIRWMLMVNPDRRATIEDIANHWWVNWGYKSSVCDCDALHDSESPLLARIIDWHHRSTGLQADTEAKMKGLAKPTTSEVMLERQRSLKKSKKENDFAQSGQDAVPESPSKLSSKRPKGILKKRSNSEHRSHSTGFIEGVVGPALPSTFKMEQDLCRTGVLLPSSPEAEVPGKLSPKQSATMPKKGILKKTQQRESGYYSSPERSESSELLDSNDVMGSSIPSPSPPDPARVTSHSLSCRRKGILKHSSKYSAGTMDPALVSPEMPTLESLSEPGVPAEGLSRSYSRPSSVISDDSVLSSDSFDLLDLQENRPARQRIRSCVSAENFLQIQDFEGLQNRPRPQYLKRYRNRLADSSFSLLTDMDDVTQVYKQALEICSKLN
In words: In vitro multi-kinase activity, IC50. In kind it is biochemical. The text has this:
(§1) The study evaluates the IC50 values (in nM) of Compound 1 in comparison to FDA approved CDK 4/6 inhibitors Comparator 1, Comparator 2 and Comparator 3, which represent treatment advances for HR+ HER^2-metastatic breast cancer. IC50 value is a quantitative measure indicating the concentration needed to inhibit the listed kinase by 50%.

A further series has as its target CDK17/cyclin Y (Homo sapiens, UniProt Q00537). In words: In vitro multi-kinase activity, IC50. It is filed as biochemical.
Description: as §1

A further series deals with CDK1/cyclin B (Homo sapiens, UniProt P06493). In words: In vitro multi-kinase activity, IC50. It is filed as biochemical.
CDK1/cyclin B, sequence (P06493 whole entry): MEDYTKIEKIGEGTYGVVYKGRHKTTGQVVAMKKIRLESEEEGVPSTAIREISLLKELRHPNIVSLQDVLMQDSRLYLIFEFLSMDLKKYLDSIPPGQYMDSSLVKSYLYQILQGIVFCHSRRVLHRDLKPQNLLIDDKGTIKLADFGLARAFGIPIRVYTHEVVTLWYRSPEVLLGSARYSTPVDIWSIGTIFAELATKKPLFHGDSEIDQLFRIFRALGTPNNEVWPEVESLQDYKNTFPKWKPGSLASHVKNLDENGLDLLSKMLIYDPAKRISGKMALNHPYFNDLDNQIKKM
CDK1/cyclin B, sequence (P14635 whole entry partner): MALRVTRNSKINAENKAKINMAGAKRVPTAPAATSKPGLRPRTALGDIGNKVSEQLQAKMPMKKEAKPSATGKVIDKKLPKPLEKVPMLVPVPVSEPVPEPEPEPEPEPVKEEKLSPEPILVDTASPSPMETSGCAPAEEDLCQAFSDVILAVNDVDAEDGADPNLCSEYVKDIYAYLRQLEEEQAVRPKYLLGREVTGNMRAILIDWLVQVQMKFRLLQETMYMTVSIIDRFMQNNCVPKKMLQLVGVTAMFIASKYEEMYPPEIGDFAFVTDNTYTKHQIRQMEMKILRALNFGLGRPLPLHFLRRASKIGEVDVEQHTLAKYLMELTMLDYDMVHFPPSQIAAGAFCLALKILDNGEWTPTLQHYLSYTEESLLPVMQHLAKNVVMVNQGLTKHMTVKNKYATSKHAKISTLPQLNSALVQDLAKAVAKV
Description: as §1

A further series deals with CDK9/cyclinT1 (Homo sapiens, UniProt P50750). As to the kind of experiment: In vitro multi-kinase activity, IC50. It is filed as biochemical.
Description: as §1

A further series addresses CSF1R (Homo sapiens, UniProt P07333). As to the kind of experiment: In vitro multi-kinase activity, IC50. It is filed as biochemical.
Description: as §1

In another series the target is CDK16/cyclin Y (Homo sapiens, UniProt Q00536). As to the kind of experiment: In vitro multi-kinase activity, IC50. In kind it is biochemical.
CDK16/cyclin Y, sequence (Q00536 whole entry): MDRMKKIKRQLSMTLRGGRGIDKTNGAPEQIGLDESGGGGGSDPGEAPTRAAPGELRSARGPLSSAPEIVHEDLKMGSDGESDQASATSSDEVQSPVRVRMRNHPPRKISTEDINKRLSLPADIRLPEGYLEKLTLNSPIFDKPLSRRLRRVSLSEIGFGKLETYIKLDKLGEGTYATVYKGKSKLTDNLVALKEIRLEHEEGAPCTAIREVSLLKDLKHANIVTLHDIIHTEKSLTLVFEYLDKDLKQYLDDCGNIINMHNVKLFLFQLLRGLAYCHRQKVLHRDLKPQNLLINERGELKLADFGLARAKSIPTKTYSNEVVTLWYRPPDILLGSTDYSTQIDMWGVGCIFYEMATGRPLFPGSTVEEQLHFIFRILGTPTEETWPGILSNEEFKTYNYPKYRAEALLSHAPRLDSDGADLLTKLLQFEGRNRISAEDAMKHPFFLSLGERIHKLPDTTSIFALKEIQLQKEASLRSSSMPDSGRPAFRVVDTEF
CDK16/cyclin Y, sequence (Q8ND76 whole entry partner): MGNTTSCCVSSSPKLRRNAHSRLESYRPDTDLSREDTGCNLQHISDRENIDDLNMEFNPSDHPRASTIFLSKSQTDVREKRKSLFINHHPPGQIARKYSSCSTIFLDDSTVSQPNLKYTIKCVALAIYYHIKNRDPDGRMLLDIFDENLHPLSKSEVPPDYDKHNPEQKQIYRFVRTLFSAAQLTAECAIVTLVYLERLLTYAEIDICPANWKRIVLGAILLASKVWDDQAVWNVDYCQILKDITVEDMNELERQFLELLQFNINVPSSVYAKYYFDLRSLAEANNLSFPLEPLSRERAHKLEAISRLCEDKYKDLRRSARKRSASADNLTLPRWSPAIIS
Description: as §1

The target in a further series is CDK2/cyclin E (Homo sapiens, UniProt P24941). In words: In vitro multi-kinase activity, IC50. In kind it is biochemical.
Description: as §1

For the next series, the target named is KIT (Homo sapiens, UniProt P10721). In words: In vitro multi-kinase activity, IC50. In kind it is biochemical.
KIT, sequence (P10721 26-976): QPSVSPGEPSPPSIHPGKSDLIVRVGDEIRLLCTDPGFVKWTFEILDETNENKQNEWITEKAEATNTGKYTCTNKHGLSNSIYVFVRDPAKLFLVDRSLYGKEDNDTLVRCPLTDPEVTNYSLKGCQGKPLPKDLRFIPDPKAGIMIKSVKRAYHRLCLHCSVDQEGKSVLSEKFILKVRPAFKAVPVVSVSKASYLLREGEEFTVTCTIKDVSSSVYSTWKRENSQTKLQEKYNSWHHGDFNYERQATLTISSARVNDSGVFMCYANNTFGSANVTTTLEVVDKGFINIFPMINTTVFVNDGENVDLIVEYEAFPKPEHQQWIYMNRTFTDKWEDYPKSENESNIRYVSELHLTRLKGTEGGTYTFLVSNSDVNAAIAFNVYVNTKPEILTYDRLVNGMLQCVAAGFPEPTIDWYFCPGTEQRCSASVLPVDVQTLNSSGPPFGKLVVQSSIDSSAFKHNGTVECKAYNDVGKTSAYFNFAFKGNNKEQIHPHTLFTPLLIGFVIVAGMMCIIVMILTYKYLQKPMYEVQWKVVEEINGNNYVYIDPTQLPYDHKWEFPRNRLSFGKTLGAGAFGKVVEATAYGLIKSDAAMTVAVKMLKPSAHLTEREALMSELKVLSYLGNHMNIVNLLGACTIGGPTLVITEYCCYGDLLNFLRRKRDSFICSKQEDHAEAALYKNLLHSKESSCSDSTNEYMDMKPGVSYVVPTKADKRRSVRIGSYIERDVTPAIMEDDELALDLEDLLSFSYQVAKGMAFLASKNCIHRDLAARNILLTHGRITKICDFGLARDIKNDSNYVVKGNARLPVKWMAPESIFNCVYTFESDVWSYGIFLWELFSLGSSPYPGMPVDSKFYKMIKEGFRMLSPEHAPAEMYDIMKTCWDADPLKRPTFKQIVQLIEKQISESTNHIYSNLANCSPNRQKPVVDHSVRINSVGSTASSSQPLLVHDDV
Description: as §1

In a further series the target is CDK4/cyclin D1 (Homo sapiens, UniProt P11802). As to the kind of experiment: In vitro multi-kinase activity, IC50. It is filed as biochemical.
CDK4/cyclin D1, sequence (P11802 whole entry): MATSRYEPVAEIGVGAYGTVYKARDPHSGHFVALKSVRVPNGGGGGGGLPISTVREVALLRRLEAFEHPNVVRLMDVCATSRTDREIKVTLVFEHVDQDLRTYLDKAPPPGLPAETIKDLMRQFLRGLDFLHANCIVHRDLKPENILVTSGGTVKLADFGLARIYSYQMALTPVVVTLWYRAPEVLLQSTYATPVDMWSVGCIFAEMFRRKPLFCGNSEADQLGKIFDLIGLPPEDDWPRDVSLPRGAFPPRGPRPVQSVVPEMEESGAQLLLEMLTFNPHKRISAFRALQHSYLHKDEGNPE
CDK4/cyclin D1, sequence (P24385 whole entry partner): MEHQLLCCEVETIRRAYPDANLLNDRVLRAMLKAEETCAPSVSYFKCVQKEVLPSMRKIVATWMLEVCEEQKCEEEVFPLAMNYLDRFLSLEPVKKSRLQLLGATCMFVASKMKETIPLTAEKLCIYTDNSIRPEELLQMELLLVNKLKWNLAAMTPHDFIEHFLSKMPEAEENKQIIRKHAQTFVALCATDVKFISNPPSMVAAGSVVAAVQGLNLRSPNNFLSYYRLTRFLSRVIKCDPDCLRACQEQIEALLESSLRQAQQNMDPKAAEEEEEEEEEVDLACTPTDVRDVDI
Description: as §1

The target in a further series is CDK7/cyclin H (Homo sapiens, UniProt P50613). As to the kind of experiment: In vitro multi-kinase activity, IC50. In kind it is biochemical.
Description: as §1

The next series addresses CDK6/cyclin D1 (Homo sapiens, UniProt Q00534). As to the kind of experiment: In vitro multi-kinase activity, IC50. It is filed as biochemical.
Description: as §1

Series [2] is described as follows: Phase 1 dose-escalation study in patients with advanced cancer. It is filed as in vivo, human. As to the method:
The study is a phase 1 dose-escalation study of 8-cyclopentyl-2-((4-(4-methylpiperazin-1-yl)phenyl)amino)-7-oxo-7,8-dihydropyrido[2,3-d]pyrimidine-6-carbonitrile (Compound 1) in patients with advanced cancer. Patients are dosed daily in 28-day cycles with Compound 1 starting at 40 mg daily with dosages escalating 40 mg/day increments for each new cohort or only on days 1-21 of 28-day cycles. […] Adverse events reported are Grade 1 or 2 in severity and are predominantly gastrointestinal (GI) disorders.

Entries after “also recorded” stand apart in the source; their conditions may differ.

Usually IC50 stands for the concentration needed to halve the response being measured. Read a high IC50 as weaker potency in that assay.

CDK6/cyclin D1, sequence (Q00534 whole entry): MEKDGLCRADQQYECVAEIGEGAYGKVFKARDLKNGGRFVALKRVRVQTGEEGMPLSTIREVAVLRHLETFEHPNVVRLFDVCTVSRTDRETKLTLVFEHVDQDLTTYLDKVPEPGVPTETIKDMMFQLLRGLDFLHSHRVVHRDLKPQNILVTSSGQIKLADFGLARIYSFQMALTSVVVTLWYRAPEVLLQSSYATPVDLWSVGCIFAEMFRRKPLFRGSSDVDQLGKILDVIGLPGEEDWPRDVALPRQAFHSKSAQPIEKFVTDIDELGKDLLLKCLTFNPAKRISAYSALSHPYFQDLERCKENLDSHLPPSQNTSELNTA
CDK6/cyclin D1, sequence (P24385 whole entry partner): as the sequence (P24385 whole entry partner) above
CSF1R, sequence (P07333 20-972): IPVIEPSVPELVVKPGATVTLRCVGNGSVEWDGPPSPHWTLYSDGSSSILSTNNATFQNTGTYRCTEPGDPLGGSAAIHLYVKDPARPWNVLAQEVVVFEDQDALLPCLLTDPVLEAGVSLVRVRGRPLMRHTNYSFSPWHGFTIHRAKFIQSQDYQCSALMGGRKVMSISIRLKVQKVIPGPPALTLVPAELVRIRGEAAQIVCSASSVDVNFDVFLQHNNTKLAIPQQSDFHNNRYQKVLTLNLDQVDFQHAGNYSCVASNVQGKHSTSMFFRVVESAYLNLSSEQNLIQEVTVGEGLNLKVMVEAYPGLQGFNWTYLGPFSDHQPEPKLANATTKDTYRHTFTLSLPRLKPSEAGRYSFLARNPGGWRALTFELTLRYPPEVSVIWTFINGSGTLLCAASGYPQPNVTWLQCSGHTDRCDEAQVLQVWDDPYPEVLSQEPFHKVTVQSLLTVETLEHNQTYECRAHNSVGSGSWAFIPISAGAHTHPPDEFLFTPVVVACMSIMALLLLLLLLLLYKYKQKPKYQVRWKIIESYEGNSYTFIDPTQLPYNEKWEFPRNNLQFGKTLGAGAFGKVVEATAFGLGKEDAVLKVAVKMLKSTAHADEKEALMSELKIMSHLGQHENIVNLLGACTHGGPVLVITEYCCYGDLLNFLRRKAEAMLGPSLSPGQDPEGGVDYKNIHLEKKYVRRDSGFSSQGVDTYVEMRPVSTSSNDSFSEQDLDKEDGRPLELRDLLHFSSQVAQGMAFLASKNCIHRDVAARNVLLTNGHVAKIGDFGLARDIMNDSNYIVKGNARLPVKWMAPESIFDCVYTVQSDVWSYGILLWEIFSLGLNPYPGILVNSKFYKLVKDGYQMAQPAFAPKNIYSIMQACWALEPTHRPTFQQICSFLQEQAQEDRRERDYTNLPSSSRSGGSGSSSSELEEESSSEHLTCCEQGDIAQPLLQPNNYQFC

On to `CN1CCN(c2ccc(Nc3ncc4cc(C#N)c(=O)n(C5CCCC5)c4n3)cc2)CC1` [Compound 1, 8-cyclopentyl-2-((4-(4-methylpiperazin-1-yl)phenyl)amino)-7-oxo-7,8-dihydropyrido[2,3-d]pyrimidine-6-carbonitrile], for which the “inhibition profile by KinMap” value in the series on kinases is on record as “wider inhibition profile”. Further, the neutropenia entry in [1] is on record as “reduced Neutropenia; also recorded: less neutropenia”. In addition, the IC50 was found to be 5 nM against ARK 5/NUAK 1; 14 nM at CDK17/cyclin Y; 515 nM on CDK1/cyclin B; 48 nM against CDK9/cyclinT1; 0.7 nM against CSF1R; 25 nM at CDK16/cyclin Y. Moreover, the IC50 is 69 nM at CDK2/cyclin E; 8.5 nM at KIT; 2 nM on CDK4/cyclin D1; 3770 nM against CDK7/cyclin H; 0.6 nM at CDK6/cyclin D1. The dose-limiting toxicities result in [2] (200 mg/day cohort, oral, daily in 28-day cycles) is given as “No dose-limiting toxicities”. Further, the “severity of adverse events reported” value in series [2] (predominantly gastrointestinal (GI) disorders) is reported as “Grade 1 or 2”.

(Values after patent US20240374600A1, “METHODS AND COMPOSITIONS FOR TREATING CANCER” (Onconova Therapeutics, Inc., priority 2021, published 2024).)
